Reference: patent US20180273598A1, “ADHD MARKER, APPLICATION THEREOF AND KIT” (WENZHOU KANGNING HOSPITAL CO., LTD., priority 2017, published 2018)

Tests used:
wild larvae zebrafish = test: Behavior tracking of wild-type zebrafish larvae treated with GHSR-1a antagonist; type: in vivo; conditions: wild-type (AB) embryos treated from 6 hpf to 3 dpf; 0.08 uM/L YIL781 (FIG. 4)
Procedure: Zebrafish embryos (AB) were treated with different concentrations of YIL781 (0.08 uM, 0.4 uM, 2 uM, 10 uM, 50 uM) from 6 hpf to 3 dpf, and the behavior was detected by viewpoint behavioral recorder. The concrete scheme was as follows: [table]

ghrelin mutant zebrafish = test: Behavior tracking of ghrelin mutant zebrafish larvae treated with methylphenidate; type: in vivo; conditions: ghrelin-/- embryos, 10 uM for 1 h at 3 dpf (FIG. 6)
Procedure: The embryos produced by ghrelin+/+, ghrelin−/− zebrafish intercross were treated with Methylphenidate at 72 hpf for 1 h. Pick a single hatched zebrafish larvae into a 96-well plate, behavior was tested as following table. After test, the genotype of the zebrafish larvae was identified by PCR and enzyme digestion.
The ghrelin^−/− embryos were treated with 10 uM methylphenidate for 1 h at 3 dpf, and the movement distance was measured by behavior recorder.

| Compound | activity phenotype of normal zebrafish larvae (behavioral recorder) (wild larvae zebrafish) | movement distance of ghrelin mutant after treatment (ghrelin mutant zebrafish) | movement distance of treated ghrelin mutant compared with the control group (ghrelin mutant zebrafish) |
| --- | --- | --- | --- |
| Cc1nc2ccc(Oc3ccc(F)cc3)cc2c(=O)n1C[C@H]1CCCN(C(C)C)C1 [YIL781] | induced normal zebrafish to produce a hyperactivity phenotype | – | – |
| COC(=O)C(c1ccccc1)C1CCCCN1 (stereo not drawn) [methylphenidate] | – | decreased its movement distance | no significantly different with the control group |
